Experiments:
[1] = target: T1, regulatory domain of human NFATc3 (residues 1-400) (UniProt Q12968)
T1 sequence: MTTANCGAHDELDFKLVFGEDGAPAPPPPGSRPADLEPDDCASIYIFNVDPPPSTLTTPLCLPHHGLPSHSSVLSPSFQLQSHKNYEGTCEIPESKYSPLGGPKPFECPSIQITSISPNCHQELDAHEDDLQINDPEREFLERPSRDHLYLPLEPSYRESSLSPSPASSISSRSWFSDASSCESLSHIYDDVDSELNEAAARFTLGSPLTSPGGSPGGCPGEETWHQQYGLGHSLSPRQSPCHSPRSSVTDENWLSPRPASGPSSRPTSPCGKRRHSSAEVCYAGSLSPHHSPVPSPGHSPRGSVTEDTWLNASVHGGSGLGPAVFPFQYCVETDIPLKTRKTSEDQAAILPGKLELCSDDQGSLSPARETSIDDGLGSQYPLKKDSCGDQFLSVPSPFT

[2] = tested on: PD-1-overexpressing Jurkat cells; experiment: Small molecule screen: IL2 secretion (AlphaLISA) from stimulated PD-1-overexpressing Jurkat cells; type: cell-based, human; details: 3.3 μM compound; for Zscore_1 / Zscore_2: IL2 level, α-CD3/α-CD28/α-PD-1 beads; for Zscore_1: replicate 1; for Zscore_2: replicate 2; for Zscore_AVG: average of replicate Z scores
Outline: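 Cells (100,000/well) with compound at 3.3 μM final, stimulated by α-CD3/α-CD28/α-PD-1 Dynabeads at an 8:1 bead:cell ratio. IL2 in supernatants measured by AlphaLISA. Hits scored ≥3 SD from the mean of DMSO-treated, α-PD-1-bead-stimulated controls.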

Row | Compound | in vitro phosphorylation of 15N-labeled NFATc3 (1-400), followed by 2D 15N-HSQC NMR [1] | Zscore_1 [2] | Zscore_2 [2] | Zscore_AVG [2]
1 | recombinant CDK4/cyclin D1 | However, this did not occur when NFAT4 was incubated with CDK4 | – | – | –
2 | O=c1cc(N2CCOCC2)oc2c1ccc1ccccc12 [DNA-PK Inhibitor II] | – | 0.06496 | 0.1041 | 0.08452
3 | Oc1ccc2ccccc2c1SSc1c(O)ccc2ccccc12 [p21-Activated Kinase Inhibitor III, IPA-3] | – | −0.461 | 0.6426 | 0.09079
4 | Staurosporine, N-benzoyl- | – | −5.987 | −7.072 | −6.529
5 | Oc1cccc(-c2nc(N3CCOCC3)c3oc4ncccc4c3n2)c1 [PI-103] | – | −0.718 | 0.8433 | 0.06265
6 | PDK1/Akt/Flt Dual Pathway Inhibitor | – | −10.05 | −10.59 | −10.32
7 | NS(=O)(=O)c1ccc(N/N=C2\C(=O)Nc3ccc(Br)cc32)cc1 [Cdk2 Inhibitor II] | – | −0.2096 | −0.6424 | −0.426
8 | PI 3-Kγ Inhibitor VII | – | −0.08397 | −0.6851 | −0.3845
9 | Oc1ccc(Nc2nc(-c3ccc(Cl)cc3)cs2)cc1 [Sphingosine Kinase Inhibitor] | – | −3.806 | −4.154 | −3.98
10 | COc1ccc2c(c1)/C(=C/c1cnc[nH]1)C(=O)N2 [SU9516] | – | 8.231 | 12.12 | 10.18
11 | Cl.O=S(=O)(c1cccc2c(I)cccc12)N1CCCNCC1 [ML-7, Hydrochloride] | – | 2.906 | 0.08811 | 1.497
12 | COc1ccc2nc3n[nH]c(C)c3c(NCCOCCO)c2c1 [Ras/Rac Transformation Blocker, SCH 51344] | – | −2.363 | −3.128 | −2.746
13 | COc1cc2ncc(-c3ccccc3)nc2cc1OC [AG 1296] | – | 0.5275 | −0.8562 | −0.1643
14 | Cl.Cl.O=S(=O)(c1cccc2cnccc12)N1CCCNCC1 [HA 1077, Dihydrochloride Fasudil] | – | −1.883 | −3.234 | −2.559
15 | CN[C@@H]1C[C@H]2O[C@@](C)([C@@H]1OC)n1c3ccccc3c3c4c(c5c6ccccc6n2c5c31)C(=O)N[C@@H]4O [UCN-01] | – | −7.46 | −8.298 | −7.879
16 | COc1nccc(-c2c(-c3ccc(F)cc3)ncn2C2CCC(O)CC2)n1 (stereo not shown) [SB 239063] | – | −0.08397 | 1.041 | 0.4785

Row | Compound | in vitro phosphorylation of 15N-labeled NFATc3 (1-400), followed by 2D 15N-HSQC NMR [1] | Zscore_1 [2] | Zscore_2 [2] | Zscore_AVG [2]
17 | COc1cc2ncnc(Nc3ccc(OCc4ccccc4)cc3)c2cc1OC [EGFR/ErbB-2 Inhibitor] | – | 0.09156 | 4.015 | 2.053
18 | N#CC(C#N)=C(N)/C(C#N)=C/c1ccc(O)cc1 [AG 112] | – | −1.54 | −3.816 | −2.678
19 | O=C(c1cc2cc(O)ccc2[nH]1)c1cc2cc(O)ccc2[nH]1 [Flt-3 Inhibitor II] | – | 1.536 | 2.085 | 1.81
20 | CC(=O)O[C@@H]1[C@@H](OC(C)=O)[C@@H](O)[C@H](Oc2c(-c3ccc(O)cc3)oc3cc(O)cc(O)c3c2=O)O[C@H]1C [RSK Inhibitor, SL0101] | – | 1.689 | −0.3488 | 0.67
21 | PIM1/2 Kinase Inhibitor V | – | −0.917 | 0.2008 | −0.3581
22 | O=[N+]([O-])c1ccc(-c2nc(-c3ccc(F)cc3)c(-c3ccncc3)[nH]2)cc1 [PD 169316] | – | −0.1697 | 0.08497 | −0.04235
23 | COc1cc2c(cc1OC)-c1[nH]nc(Nc3cccc(F)c3)c1C2 [PDGF Receptor Tyrosine Kinase Inhibitor IV] | – | −0.8894 | −1.508 | −1.199
24 | CC(C)(C)c1cc(C=C(C#N)C#N)cc(Br)c1O [AG 1024] | – | 0.3395 | 0.506 | 0.4228
25 | IKK Inhibitor VII | – | −6.154 | −3.033 | −4.594
26 | Cc1nc2cc3nc(-c4cccs4)cnc3cc2n1C [AGL 2043] | – | −0.2488 | 1.253 | 0.5019
27 | O=C(Nc1nc2ccccc2n1CCN1CCOCC1)c1cccc([N+](=O)[O-])c1 [IRAK-1/4 Inhibitor] | – | −0.5038 | −1.963 | −1.233
28 | O=C1Nc2ccc(Cl)cc2/C1=C/c1cc(Cl)c(O)c(Cl)c1 [PKR Inhibitor, Negative Control] | – | −1.427 | −0.4334 | −0.9301
29 | NC(=O)Nc1sc(-c2ccccc2)cc1C(N)=O [IKK-2 Inhibitor VI] | – | −5.576 | −7.212 | −6.394
30 | COc1cccc(-c2cc(=O)c3ccccc3o2)c1N [PD98059] | – | −1.781 | −1.614 | −1.698
31 | COc1ccc(OC)c2c(=S)c3ccccc3[nH]c12 [Cdk4 Inhibitor II, 625987] | – | 0.5748 | −1.274 | −0.3496
32 | CC[C@@H](CO)Nc1nc(NCc2ccccc2)c2ncn(C(C)C)c2n1 (single isomer, unassigned) [Roscovitine, (S)-Isomer] | – | −2.928 | −1.279 | −2.103

From patent publication US11865176B2, “Compositions and methods of modulating anti-tumor immunity” (Dana-Farber Cancer Institute, Inc., priority 2016, dated 2024)
